Assay results reported in ChEMBL document CHEMBL1201861, “Genomics of Drug Sensitity in Cancer screening data, Wellcome Trust Sanger Institute”.

Key:
Assay in all cases: cells
VA-ES-BJ = type: functional, cell-based, Homo sapiens; settings: Homo sapiens, VA-ES-BJ;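 further: growth inhibition of the VA-ES-BJ cell line, read out by a cell viability assay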
Description: SANGER: Inhibition of human VA-ES-BJ cell growth in a cell viability assay.

SBC-1 = type: functional, cell-based; settings: Homo sapiens;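 further: cell viability assay measuring growth inhibition of the SBC-1 cell line, IC50 being the concentration that halves growth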
Description: SANGER: Inhibition of human SBC-1 cell growth in a cell viability assay.

L-363 = type: functional, cell-based; settings: Homo sapiens
Description: SANGER: Inhibition of human L-363 cell growth in a cell viability assay.

SK-HEP1 = type: functional, cell-based, Homo sapiens, SK-HEP-1; settings: Homo sapiens, SK-HEP1;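 further: cell viability readout used to quantify reduction in proliferation of human SK-HEP-1 cells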
Description: SANGER: Inhibition of human SK-HEP-1 cell growth in a cell viability assay.

NCI-H292 = type: functional, cell-based, Homo sapiens; settings: Homo sapiens, NCI-H292;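 further: growth inhibition of NCI-H292 cells, read out with a cell viability assay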
Description: SANGER: Inhibition of human NCI-H292 cell growth in a cell viability assay.

SW1990 = type: functional, cell-based, Homo sapiens; settings: Homo sapiens, SW1990;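 further: cell growth inhibition determined with a viability assay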
Description: SANGER: Inhibition of human SW1990 cell growth in a cell viability assay.

KALS-1 = type: functional, cell-based, Homo sapiens; settings: Homo sapiens, KALS-1;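 further: growth inhibition of KALS-1 cells, determined with a cell viability assay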
Description: SANGER: Inhibition of human KALS-1 cell growth in a cell viability assay.

GI-ME-N = type: functional, cell-based, Homo sapiens; settings: Homo sapiens, GI-ME-N;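 further: growth inhibition of human GI-ME-N cells, read out with a cell viability assay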
Description: SANGER: Inhibition of human GI-ME-N cell growth in a cell viability assay.

NY = type: functional, cell-based, Homo sapiens; settings: Homo sapiens, NY
Description: SANGER: Inhibition of human NY cell growth in a cell viability assay.

CAKI-1 = type: functional, cell-based, Homo sapiens; settings: Homo sapiens, CAKI-1;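 further: growth inhibition of CAKI-1 cells, measured by a cell viability assay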
Description: SANGER: Inhibition of human CAKI-1 cell growth in a cell viability assay.

TGBC1TKB = type: functional, cell-based, Homo sapiens; settings: Homo sapiens, TGBC1TKB;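 further: growth inhibition of TGBC1TKB cells, read out by a cell viability assay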
Description: SANGER: Inhibition of human TGBC1TKB cell growth in a cell viability assay.

MZ7-mel = type: functional, cell-based, Homo sapiens; settings: Homo sapiens, MZ7-mel;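 further: growth inhibition of human MZ7-mel cells, measured by a cell viability assay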
Description: SANGER: Inhibition of human MZ7-mel cell growth in a cell viability assay.

SNU-449 = type: functional, cell-based, Homo sapiens; settings: Homo sapiens, SNU-449
Description: SANGER: Inhibition of human SNU-449 cell growth in a cell viability assay.

CAL-85-1 = type: functional, cell-based; settings: Homo sapiens;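 further: growth inhibition of human CAL-85-1 cells, read out with a cell viability assay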
Description: SANGER: Inhibition of human CAL-85-1 cell growth in a cell viability assay.

KP-N-YN = type: functional, cell-based; settings: Homo sapiens;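 further: growth inhibition of KP-N-YN cells, read out with a cell viability assay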
Description: SANGER: Inhibition of human KP-N-YN cell growth in a cell viability assay.

SK-MEL3 = type: functional, cell-based, Homo sapiens, SK-MEL-3; settings: Homo sapiens, SK-MEL3;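 further: growth inhibition of human SK-MEL-3 cells, read out with a cell viability assay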
Description: SANGER: Inhibition of human SK-MEL-3 cell growth in a cell viability assay.

JVM-3 = type: functional, cell-based; settings: Homo sapiens;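 further: growth inhibition of human JVM-3 cells, read out with a cell viability assay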
Description: SANGER: Inhibition of human JVM-3 cell growth in a cell viability assay.

D-502MG = type: functional, cell-based, Homo sapiens; settings: Homo sapiens, D-502MG
Description: SANGER: Inhibition of human D-502MG cell growth in a cell viability assay.

MEL-HO = type: functional, cell-based, Homo sapiens; settings: Homo sapiens, MEL-HO
Description: SANGER: Inhibition of human MEL-HO cell growth in a cell viability assay.

CAPAN-1 = type: functional, cell-based, Homo sapiens; settings: Homo sapiens, CAPAN-1;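 further: growth suppression of CAPAN-1 cells, read out by a cell viability assay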
Description: SANGER: Inhibition of human CAPAN-1 cell growth in a cell viability assay.

UACC-257 = type: functional, cell-based, Homo sapiens; settings: Homo sapiens, UACC-257
Description: SANGER: Inhibition of human UACC-257 cell growth in a cell viability assay.

HT-1080 = type: functional, cell-based, Homo sapiens; settings: Homo sapiens, HT-1080
Description: SANGER: Inhibition of human HT-1080 cell growth in a cell viability assay.

CWR22R = type: functional, cell-based, Homo sapiens; settings: Homo sapiens, 22Rv1;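 further: growth inhibition of 22Rv1 cells, read out with a cell viability assay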
Description: SANGER: Inhibition of human 22RV1 cell growth in a cell viability assay.

Ca9-22 = type: functional, cell-based, Homo sapiens; settings: Homo sapiens, Ca9-22;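 further: growth inhibition of Ca9-22 cells, read out with a cell viability assay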
Description: SANGER: Inhibition of human Ca9-22 cell growth in a cell viability assay.

KYSE-270 = type: functional, cell-based, Homo sapiens; settings: Homo sapiens, KYSE-270;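 further: cell growth inhibition measured with a viability assay in the human KYSE-270 line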
Description: SANGER: Inhibition of human KYSE-270 cell growth in a cell viability assay.

NCI-H1770 = type: functional, cell-based; settings: Homo sapiens;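 further: growth inhibition of NCI-H1770 cells determined with a viability readout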
Description: SANGER: Inhibition of human NCI-H1770 cell growth in a cell viability assay.

OE33 = type: functional, cell-based, Homo sapiens; settings: Homo sapiens, OE33;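 further: growth inhibition of human OE33 cells, measured by a cell viability assay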
Description: SANGER: Inhibition of human OE33 cell growth in a cell viability assay.

HCC1954 = type: functional, cell-based, Homo sapiens; settings: Homo sapiens, HCC1954;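 further: growth inhibition of human HCC1954 cells, read out with a cell viability assay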
Description: SANGER: Inhibition of human HCC1954 cell growth in a cell viability assay.

PANC-03-27 = type: functional, cell-based, Homo sapiens; settings: Homo sapiens, PANC-03-27
Description: SANGER: Inhibition of human PANC-03-27 cell growth in a cell viability assay.

T84 = type: functional, cell-based, Homo sapiens; settings: Homo sapiens, T84;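 further: growth inhibition measured with a cell viability readout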
Description: SANGER: Inhibition of human T84 cell growth in a cell viability assay.

KMOE-2 = type: functional, cell-based; settings: Homo sapiens;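 further: growth inhibition of human KMOE-2 cells, read out with a cell viability assay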
Description: SANGER: Inhibition of human KMOE-2 cell growth in a cell viability assay.

MOLT-16 = type: functional, cell-based; settings: Homo sapiens;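 further: growth inhibition of human MOLT-16 cells, read out with a cell viability assay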
Description: SANGER: Inhibition of human MOLT-16 cell growth in a cell viability assay.

MIA PaCa-2 = type: functional, cell-based, Homo sapiens; settings: Homo sapiens, MIA PaCa-2;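 further: growth inhibition of MIA PaCa-2 cells, read out with a cell viability assay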
Description: SANGER: Inhibition of human MIA-PaCa-2 cell growth in a cell viability assay.

SN12C = type: functional, cell-based, Homo sapiens; settings: Homo sapiens, SN12C;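 further: growth inhibition of human SN12C cells, measured by a cell viability assay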
Description: SANGER: Inhibition of human SN12C cell growth in a cell viability assay.

SK-LMS-1 = type: functional, cell-based, Homo sapiens; settings: Homo sapiens, SK-LMS-1;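 further: growth inhibition of human SK-LMS-1 cells, read out with a cell viability assay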
Description: SANGER: Inhibition of human SK-LMS-1 cell growth in a cell viability assay.

D-542MG = type: functional, cell-based, Homo sapiens; settings: Homo sapiens, D-542MG
Description: SANGER: Inhibition of human D-542MG cell growth in a cell viability assay.

MHH-NB-11 = type: functional, cell-based, Homo sapiens; settings: Homo sapiens, MHH-NB-11;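 further: growth inhibition of human MHH-NB-11 cells, read out by a cell viability assay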
Description: SANGER: Inhibition of human MHH-NB-11 cell growth in a cell viability assay.

NCI-N87 = type: functional, cell-based, Homo sapiens; settings: Homo sapiens, NCI-N87;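 further: growth inhibition of human NCI-N87 cells, read out with a cell viability assay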
Description: SANGER: Inhibition of human NCI-N87 cell growth in a cell viability assay.

MC-IXC = type: functional, cell-based, Homo sapiens; settings: Homo sapiens, MC-IXC;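 further: growth inhibition of MC-IXC cells, read out with a cell viability assay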
Description: SANGER: Inhibition of human MC-IXC cell growth in a cell viability assay.

KU-19-19 = type: functional, cell-based, Homo sapiens; settings: Homo sapiens, KU-19-19
Description: SANGER: Inhibition of human KU-19-19 cell growth in a cell viability assay.

HCC1806 = type: functional, cell-based, Homo sapiens; settings: Homo sapiens, HCC1806;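 further: growth inhibition of the cancer cell line, determined with a cell viability assay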
Description: SANGER: Inhibition of human HCC1806 cell growth in a cell viability assay.

639-V = type: functional, cell-based, Homo sapiens; settings: Homo sapiens, 639-V;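 further: growth inhibition of 639-V cells, read out with a cell viability assay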
Description: SANGER: Inhibition of human 639-V cell growth in a cell viability assay.

KS-1 = type: functional, cell-based, Homo sapiens; settings: Homo sapiens, KS-1;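 further: growth inhibition of KS-1 cells, read out with a cell viability assay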
Description: SANGER: Inhibition of human KS-1 cell growth in a cell viability assay.

RVH-421 = type: functional, cell-based, Homo sapiens; settings: Homo sapiens, RVH-421
Description: SANGER: Inhibition of human RVH-421 cell growth in a cell viability assay.

NCI-H1623 = type: functional, cell-based, Homo sapiens; settings: Homo sapiens, NCI-H1623;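 further: cell viability assay used as the read-out for growth inhibition of NCI-H1623 cells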
Description: SANGER: Inhibition of human NCI-H1623 cell growth in a cell viability assay.

NCI-H1793 = type: functional, cell-based, Homo sapiens; settings: Homo sapiens, NCI-H1793;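 further: cell growth inhibition, read out by a cell viability assay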
Description: SANGER: Inhibition of human NCI-H1793 cell growth in a cell viability assay.

NCI-H358 = type: functional, cell-based, Homo sapiens; settings: Homo sapiens, NCI-H358;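 further: growth inhibition of NCI-H358 human cells, read out with a cell viability assay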
Description: SANGER: Inhibition of human NCI-H358 cell growth in a cell viability assay.

TE-9 = type: functional, cell-based, Homo sapiens; settings: Homo sapiens, TE-9;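 further: cell growth inhibition, measured with a cell viability readout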
Description: SANGER: Inhibition of human TE-9 cell growth in a cell viability assay.

NCI-H1437 = type: functional, cell-based, Homo sapiens; settings: Homo sapiens, NCI-H1437;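 further: growth inhibition of human NCI-H1437 cells, read out by a cell viability assay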
Description: SANGER: Inhibition of human NCI-H1437 cell growth in a cell viability assay.

NCI-H69 = type: functional, cell-based; settings: Homo sapiens;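 further: growth inhibition of the cell line, read out with a cell viability assay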
Description: SANGER: Inhibition of human NCI-H69 cell growth in a cell viability assay.

In the case of Cn1cc(C2=C(c3ccc(Cl)cc3Cl)C(=O)NC2=O)c2ccccc21 [SB-216763], the IC50 (VA-ES-BJ) is reported as greater than 10 µM, the IC50 (SBC-1) is reported as greater than 10 µM and the IC50 (L-363) is reported as greater than 10 µM. The IC50 (SK-HEP1) was greater than 10 µM, the IC50 (NCI-H292) was greater than 10 µM and the IC50 (SW1990) was greater than 10 µM. The IC50 (KALS-1) was greater than 10 µM, the IC50 (GI-ME-N) was greater than 10 µM and the IC50 (NY) was greater than 10 µM. The IC50 (CAKI-1) was greater than 10 µM, the IC50 (TGBC1TKB) was greater than 10 µM and the IC50 (MZ7-mel) was greater than 10 µM. For the same molecule, the IC50 (SNU-449) was greater than 10 µM, the IC50 (CAL-85-1) was greater than 10 µM and the IC50 (KP-N-YN) was greater than 10 µM. For the same molecule, the IC50 (SK-MEL3) was greater than 10 µM, the IC50 (JVM-3) was greater than 10 µM and the IC50 (D-502MG) was greater than 10 µM. The IC50 (MEL-HO) was greater than 10 µM, the IC50 (CAPAN-1) was greater than 10 µM and the IC50 (UACC-257) was greater than 10 µM. The IC50 (HT-1080) was greater than 10 µM, the IC50 (CWR22R) was greater than 10 µM and the IC50 (Ca9-22) was greater than 10 µM. For the same molecule, the IC50 (KYSE-270) was greater than 10 µM, the IC50 (NCI-H1770) was 0.294 µM and the IC50 (OE33) was greater than 10 µM. For the same molecule, the IC50 (HCC1954) was greater than 10 µM, the IC50 (PANC-03-27) was greater than 10 µM and the IC50 (T84) was greater than 10 µM. For the same molecule, the IC50 (KMOE-2) was greater than 10 µM, the IC50 (MOLT-16) was greater than 10 µM and the IC50 (MIA PaCa-2) was greater than 10 µM. For the same molecule, the IC50 (SN12C) was greater than 10 µM, the IC50 (SK-LMS-1) was greater than 10 µM and the IC50 (D-542MG) was greater than 10 µM. The IC50 (MHH-NB-11) was greater than 10 µM, the IC50 (NCI-N87) was greater than 10 µM and the IC50 (MC-IXC) was greater than 10 µM. It also gave an IC50 (KU-19-19) greater than 10 µM, an IC50 (HCC1806) greater than 10 µM and an IC50 (639-V) greater than 10 µM. It also gave an IC50 (KS-1) greater than 10 µM, an IC50 (RVH-421) greater than 10 µM and an IC50 (NCI-H1623) greater than 10 µM. For the same molecule, the IC50 (NCI-H1793) was greater than 10 µM, the IC50 (NCI-H358) was greater than 10 µM and the IC50 (TE-9) was greater than 10 µM. The IC50 (NCI-H1437) was greater than 10 µM.

Work on CCOc1nc(NC(=O)Cc2cc(OC)ccc2OC)cc(N)c1C#N yielded an IC50 (VA-ES-BJ) greater than 10 µM, an IC50 (SBC-1) greater than 10 µM and an IC50 (L-363) greater than 10 µM. It also gave an IC50 (SK-HEP1) greater than 10 µM, an IC50 (NCI-H292) greater than 10 µM and an IC50 (SW1990) greater than 10 µM. For the same molecule, the IC50 (KALS-1) was greater than 10 µM, the IC50 (GI-ME-N) was greater than 10 µM and the IC50 (NY) was greater than 10 µM. It also gave an IC50 (CAKI-1) greater than 10 µM, an IC50 (TGBC1TKB) greater than 10 µM and an IC50 (MZ7-mel) greater than 10 µM. The IC50 (SNU-449) was greater than 10 µM, the IC50 (CAL-85-1) was greater than 10 µM and the IC50 (KP-N-YN) was greater than 10 µM. The IC50 (SK-MEL3) was greater than 10 µM, the IC50 (JVM-3) was greater than 10 µM and the IC50 (D-502MG) was greater than 10 µM. For the same molecule, the IC50 (MEL-HO) was greater than 10 µM, the IC50 (CAPAN-1) was greater than 10 µM and the IC50 (UACC-257) was greater than 10 µM. The IC50 (HT-1080) was greater than 10 µM, the IC50 (CWR22R) was greater than 10 µM and the IC50 (Ca9-22) was greater than 10 µM. For the same molecule, the IC50 (KYSE-270) was greater than 10 µM, the IC50 (NCI-H1770) was greater than 10 µM and the IC50 (OE33) was greater than 10 µM. For the same molecule, the IC50 (HCC1954) was greater than 10 µM, the IC50 (PANC-03-27) was greater than 10 µM and the IC50 (T84) was greater than 10 µM. The IC50 (MOLT-16) was greater than 10 µM, the IC50 (NCI-H69) was greater than 10 µM and the IC50 (MIA PaCa-2) was greater than 10 µM. For the same molecule, the IC50 (SN12C) was greater than 10 µM, the IC50 (SK-LMS-1) was greater than 10 µM and the IC50 (D-542MG) was greater than 10 µM. For the same molecule, the IC50 (MHH-NB-11) was greater than 10 µM, the IC50 (NCI-N87) was greater than 10 µM and the IC50 (MC-IXC) was greater than 10 µM. The IC50 (KU-19-19) was greater than 10 µM, the IC50 (HCC1806) was greater than 10 µM and the IC50 (639-V) was greater than 10 µM. For the same molecule, the IC50 (KS-1) was greater than 10 µM, the IC50 (RVH-421) was greater than 10 µM and the IC50 (NCI-H1623) was greater than 10 µM. The IC50 (NCI-H1793) was greater than 10 µM, the IC50 (NCI-H358) was greater than 10 µM and the IC50 (TE-9) was greater than 10 µM. The IC50 (NCI-H1437) was greater than 10 µM.
